Experimental data published in US5225607A, “Insecticidal ethers” (Imperial Chemical Industries PLC, priority 1985, dated 1993).

Key:
Type in all cases: in vivo
Nilaparvata lugens = test: Insecticidal test, Nilaparvata lugens (brown planthopper), contact; conditions: 72 h, Cabbage leaf, 3 days, read-out: grading of mortality, NL
Summary of the method: (§1)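 Acetone solution diluted in water + 0.01% wetting agent; 500/250/100 ppm. Treat pests and/or host plant/food medium. Read mortality/knockdown day 1–3. Grades: A 80–100% (S. exigua 70–100%), B 50–79% (50–69%), C <50%.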

Musca domestica [1] = test: Knockdown test, Musca domestica (houseflies - adults); conditions: cotton wool/sugar, 4 hours, read-out: grading of knockdown, MD/KD
Summary of the method: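 Adult houseflies were exposed to the compound as aqueous acetone preparations with 0.01% Lissapol NX wetting agent, at 500, 250 or 100 ppm. Knockdown was graded A (80–100%), B (50–79%) or C (<50%).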

Diabrotica balteata = test: Insecticidal test, Diabrotica balteata (rootworm larvae), residual; conditions: 72 h, filter paper/maize seed, 3 days, read-out: grading of mortality, DB
Summary of the method: as §1

Spodoptera exigua = test: Insecticidal test, Spodoptera exigua (lesser armyworm), residual; conditions: 72 h, cotton leaf, 3 days, read-out: grading of mortality, SE
Description: The activity of the Product was determined using a variety of insect and acarine pests. The Product was used in the form of liquid preparations containing 500, 250 or 100 parts per million (ppm) by weight of the Product. The preparations were made by dissolving the Product in acetone and diluting the solutions with water containing 0.01% by weight of a wetting agent sold under the trade name "LISSAPOL" NX until the liquid preparations contained the required concentratio of the Product. "Lissapol" is a Registered Trade Mark.
The test procedure adopted with regard to each pest was basically the same and comprised supporting a number of the pests on a medium which was usually a host plant or a foodstuff on which the pests feed, and treating either or both the pests and the medium with the preparations. The mortality of the pests was then assessed at periods usually varying from one to three days after the treatment.
The results of the tests are given in Table IV for each of the Products, at the rate in parts per million given in the second column as a grading of mortality designated as A, B or C wherein A indicates 80-100% mortality or knockdown (70-100% in the case of Spodoptera exigua), B indicates 50-79% mortality or knockdown (50-69% in the case of Spodoptera exigua) and C indicates less than 50% mortality or knockdown.
In Table IV the pest organism used is designated by a letter code and the pest species, the support medium or food, and the type and duration of test is given in Table III.

Tetranychus urticae = test: Insecticidal/acaricidal test, Tetranychus urticae (spider mites - adult), contact; conditions: 72 h, French bean leaf, 3 days, read-out: grading of mortality, TU
Summary of the method: as §1

Myzus persicae = test: Insecticidal test, Myzus persicae (aphids), contact; conditions: 72 h, Chinese Cabbage leaf, 3 days, read-out: grading of mortality, MP
Summary of the method: as §1

Heliothis virescens = test: whole plant or invertebrate; conditions: in Gossypium hirsutum, 72 h, read-out: grading of mortality, HV
Summary of the method: as §1

Musca domestica [2] = test: Insecticidal test, Musca domestica (houseflies - adults), contact; conditions: 24 h, cotton wool/sugar, 1 day, read-out: grading of mortality, MD
Summary of the method: as §1

Blattella germanica = test: Insecticidal test, Blattella germanica (cockroach nymphs), residual; conditions: 72 h, plastic pot, 3 days, read-out: grading of mortality, BG
Summary of the method: as §1

Row | SMILES | mortality at 500 ppm (Nilaparvata lugens) [%] | pest or weed control at 500 ppm (Musca domestica [1]) [%] | mortality at 500 ppm (Diabrotica balteata) [%] | mortality at 500 ppm (Spodoptera exigua) [%] | mortality at 500 ppm (Tetranychus urticae) [%] | mortality at 500 ppm (Myzus persicae) [%] | mortality at 500 ppm (Heliothis virescens) [%] | mortality at 500 ppm (Musca domestica [2]) [%] | mortality at 500 ppm (Blattella germanica) [%] | further results
1 | CCOc1c(F)cc(C(COCc2cccc(Oc3ccc(Cl)cc3)c2)C(F)(F)F)cc1F (racemic) [Compound 165, (RS)-1,1,1-Trifluoro-2-(3,5-difluoro-4-ethoxyphenyl)-3 (3-(4-chlorophenoxy)benzyloxy)propane] | 80 to 100 | 80 to 100 | 80 to 100 | 70 to 100 | 80 to 100 | 80 to 100 | 80 to 100 | 80 to 100 | 80 to 100 | –
2 | CCOc1c(F)cc(C(COCc2ccc(F)c(Oc3ccccc3)c2)C(F)(F)F)cc1F (racemic) [Compound 166, (RS)-1,1,1-Trifluoro-2-(3,5-difluoro-4-ethoxyphenyl)-3-(3-phenoxy-4-fluorobenzyloxy)propane] | 80 to 100 | 80 to 100 | 80 to 100 | 70 to 100 | 80 to 100 | 50 to 79 | 80 to 100 | 80 to 100 | 80 to 100 | –
3 | CCOc1c(F)cc(C(O)(COCc2cccc(Oc3ccccc3)c2)C(F)(F)F)cc1F (racemic) [Compound 176, (RS)-1,1,1-trifluoro-2-(3,5-difluoro-4-ethoxyphenyl)-3-(3-phenoxybenzyloxy)propan-2-ol] | < 50 | 80 to 100 | 80 to 100 | 70 to 100 | < 50 | < 50 | 50 to 79 | < 50 | < 50 | –
4 | CCOc1ccc([C@H](CO[C@@H](C#N)c2cccc(Oc3ccccc3)c2)C(F)(F)F)cc1 (racemic) [Compound 252, (2RS)-1,1,1-trifluoro-2-(4-ethoxyphenyl)-3-[(RS)-α-cyano-3-phenoxybenzyloxy]propane] | 80 to 100 | 80 to 100 | 80 to 100 | 70 to 100 | < 50 | 80 to 100 | 80 to 100 | 80 to 100 | 50 to 79 | –
5 | CCOc1ccc([C@H](CO[C@H](C)c2cccc(Oc3ccccc3)c2)C(F)(F)F)cc1 (racemic) [Compound 256, (2RS)-1,1,1-trifluoro-2-(4-ethoxyphenyl)-3-[(1RS)-1-(3-phenoxyphenyl)ethoxy]propane] | 80 to 100 | 50 to 79 | < 50 | < 50 | < 50 | 80 to 100 | 80 to 100 | 80 to 100 | < 50 | –
6 | CCOc1ccc(C(COCc2ccc(F)c(Cc3ccccc3)c2)C(F)(F)F)cc1 (stereo not drawn) [Compound 8] | 80 to 100 | 80 to 100 | 80 to 100 | 70 to 100 | < 50 | 80 to 100 | 80 to 100 | 80 to 100 | 80 to 100 | –
7 | CCOc1ccc(C(COCc2cccc(Oc3ccc(F)cc3F)c2)C(F)(F)F)cc1 (stereo not drawn) [Compound 10, 1,1,1-Trifluoro-2-(4-ethoxyphenyl)-3-(3-(2,4-difluorophenoxy)benzyloxy)propane] | – | – | – | – | – | – | – | – | – | mortality at 250 ppm (Nilaparvata lugens): 80 to 100%; pest or weed control at 250 ppm (Musca domestica [1]): 80 to 100%; mortality at 250 ppm (Diabrotica balteata): 80 to 100%; mortality at 250 ppm (Spodoptera exigua): 70 to 100%; mortality at 250 ppm (Tetranychus urticae): < 50%; mortality at 250 ppm (Myzus persicae): 50 to 79%; mortality at 250 ppm (Heliothis virescens): 80 to 100%; mortality at 250 ppm (Musca domestica [2]): 80 to 100%; mortality at 250 ppm (Blattella germanica): 80 to 100%
8 | CCOc1ccc(C(COCc2cccc(Nc3ccc(F)cc3)c2)C(F)(F)F)cc1 (stereo not drawn) [Compound 11, 1,1,1-Trifluoro-2-(4-ethoxyphenyl)-3-(3-(4-fluorophenylamino)benzyloxy)propane] | 80 to 100 | 80 to 100 | < 50 | 50 to 69 | < 50 | < 50 | < 50 | 50 to 79 | 50 to 79 | –
9 | CCOc1ccc(C(COCc2cccc(Cc3ccccc3)c2)C(F)(F)F)cc1 (stereo not drawn) [Compound 12, 1,1,1-Trifluoro-2-(4-ethoxyphenyl)-3-(3-benzylbenzyloxy)propane] | 80 to 100 | 80 to 100 | 80 to 100 | 70 to 100 | < 50 | 80 to 100 | 80 to 100 | 80 to 100 | 80 to 100 | –
10 | CCOc1ccc(C(COCc2cccc(Oc3ccc(Cl)cc3)c2)C(F)(F)F)cc1F (stereo not drawn) [Compound 13, 1,1,1-Trifluoro-2-(3-fluoro-4-ethoxyphenyl)-3-(3-(4-chlorophenoxy)benzyloxy)propane] | – | – | – | – | – | – | – | – | – | mortality at 100 ppm (Nilaparvata lugens): 80 to 100%; pest or weed control at 100 ppm (Musca domestica [1]): 80 to 100%; mortality at 100 ppm (Diabrotica balteata): 50 to 79%; mortality at 100 ppm (Spodoptera exigua): 70 to 100%; mortality at 100 ppm (Tetranychus urticae): < 50%; mortality at 100 ppm (Myzus persicae): 80 to 100%; mortality at 100 ppm (Heliothis virescens): 80 to 100%; mortality at 100 ppm (Musca domestica [2]): 80 to 100%; mortality at 100 ppm (Blattella germanica): 80 to 100%
11 | CCOc1ccc(C(COCc2cccc(Oc3ccccc3)c2)C(F)(F)F)cc1F (stereo not drawn) [Compound 14, 1,1,1-Trifluoro-2-(3-fluoro-4-ethoxyphenyl)-3-(3-phenoxybenzyloxy)propane] | – | – | – | – | – | – | – | – | – | mortality at 100 ppm (Nilaparvata lugens): 80 to 100%; pest or weed control at 100 ppm (Musca domestica [1]): 80 to 100%; mortality at 100 ppm (Diabrotica balteata): 80 to 100%; mortality at 100 ppm (Spodoptera exigua): 70 to 100%; mortality at 100 ppm (Tetranychus urticae): < 50%; mortality at 100 ppm (Myzus persicae): 80 to 100%; mortality at 100 ppm (Heliothis virescens): 80 to 100%; mortality at 100 ppm (Musca domestica [2]): 80 to 100%; mortality at 100 ppm (Blattella germanica): 80 to 100%
12 | Fc1ccc(C(COCc2ccc(F)c(Oc3ccccc3)c2)C(F)(F)F)cc1 (stereo not drawn) [Compound 18, 1,1,1-Trifluoro-2-(4-fluorophenyl)-3-(3-phenoxy-4-fluorobenzyloxy)propane] | – | – | – | – | – | – | – | – | – | mortality at 250 ppm (Nilaparvata lugens): 80 to 100%; pest or weed control at 250 ppm (Musca domestica [1]): 80 to 100%; mortality at 250 ppm (Diabrotica balteata): 80 to 100%; mortality at 250 ppm (Spodoptera exigua): 70 to 100%; mortality at 250 ppm (Tetranychus urticae): 80 to 100%; mortality at 250 ppm (Myzus persicae): 80 to 100%; mortality at 250 ppm (Heliothis virescens): 80 to 100%; mortality at 250 ppm (Musca domestica [2]): 80 to 100%; mortality at 250 ppm (Blattella germanica): 80 to 100%
13 | CC(C)(C)c1ccc(C(COCc2ccc(F)c(Oc3ccccc3)c2)C(F)(F)F)cc1 (stereo not drawn) [Compound 21, 1,1,1-Trifluoro-2-(4-t-butylphenyl)-3-(3-phenoxy-4-fluorobenzyloxy)propane] | < 50 | 80 to 100 | 80 to 100 | 70 to 100 | 80 to 100 | 80 to 100 | 80 to 100 | 80 to 100 | 50 to 79 | –
14 | COCc1ccc(C(COCc2cccc(Oc3ccc(Cl)cc3)c2)C(F)(F)F)cc1 (stereo not drawn) [Compound 23, 1,1,1-Trifluoro-2-(4-methoxymethylphenyl)-3-(3-(4-chlorophenoxy)benzyloxy)propane] | 80 to 100 | 80 to 100 | 80 to 100 | 70 to 100 | < 50 | 50 to 79 | < 50 | 50 to 79 | < 50 | –
